Earlier results on 1 compound are cited in patent US20070293698A1, “Compositions of Allosteric Hemoglobin Modifiers and Methods of Making the Same” (ALLOS THERAPEUTICS, INC., priority 2004, published 2007).

For data set [1], the system named is EMT6 mouse mammary tumors. The following applies: efaproxiral plus oxygen breathing, Rockwell and Kelley 1998.
The next data set deals with Lewis lung carcinoma. The note with it: mice bearing the Lewis lung carcinoma; Teicher 1996.
Another data set concerns the target hemoglobin (Homo sapiens, UniProt P68871+P69905). The following applies: in vivo.
The subject of the next data set is mouse fibrosarcoma tumor. The following applies: combination of efaproxiral and radiation relative to radiation alone; Teicher 1996, Khandelwal 1996.

Sequence of hemoglobin (P69905 2-142 limits assumed): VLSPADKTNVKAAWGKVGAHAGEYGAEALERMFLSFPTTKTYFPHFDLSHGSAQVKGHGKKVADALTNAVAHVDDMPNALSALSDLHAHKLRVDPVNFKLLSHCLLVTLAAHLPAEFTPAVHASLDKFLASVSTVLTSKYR
Sequence of hemoglobin (P68871 2-147 limits assumed): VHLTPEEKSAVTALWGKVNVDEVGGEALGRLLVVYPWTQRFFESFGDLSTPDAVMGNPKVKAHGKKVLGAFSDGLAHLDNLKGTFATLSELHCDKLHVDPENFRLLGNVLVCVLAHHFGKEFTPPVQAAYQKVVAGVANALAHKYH

Turning to `Cc1cc(C)cc(NC(=O)Cc2ccc(OC(C)(C)C(=O)O)cc2)c1` [efaproxiral, 2-[4-((((3,5-dimethylphenyl)amino)carbonyl)methyl)phenoxy]-2-methyl propionic acid], the “effect of radiation in tumors” value in data set [1] (EMT6 tumors) is recorded as “Enhancement of the effect of radiation was observed”. In addition, the “radiation effects in normal tissues” value in data set [1] (normal tissues) is reported as “absence of enhanced radiation effects in normal tissues”. Also, the “effect on fractionated radiation therapy” value in the data set with Lewis lung carcinoma was “enhance fractionated radiation therapy”. In addition, on hemoglobin, the tissue oxygenation result is given as “enhance tissue oxygenation in vivo”. Also, the tumor growth result in the data set on mouse fibrosarcoma tumor was “tumor growth has been shown to be reduced”.
